Test results: patent US10064883B2, “Lipiodol-based anti-tumour emulsion for treating cancer” (CHU DE DIJON, priority 2012, dated 2018)

How the values were obtained:
Type in all cases: cell-based
SNU-398 = assay: in vitro effectiveness of anticancer agents on CHC cell line SNU-398; details: SNU-398 CHC cell line
SNU-449 = assay: in vitro effectiveness of anticancer agents on CHC cell line SNU-449; details: SNU-449 CHC cell line
HepG2 = assay: in vitro effectiveness of anticancer agents on CHC cell line HepG2

Measured: effectiveness among the anticancer agents in vitro

CC(=O)[C@]1(O)Cc2c(O)c3c(c(O)c2[C@@H](O[C@H]2C[C@H](N)[C@H](O)[C@H](C)O2)C1)C(=O)c1ccccc1C3=O [Idarubicin]
most effective: SNU-398 | SNU-449 | HepG2
